# From US20070269513A1, “Liver selective drug therapy” (priority 1999, published 2007)
# Where “and” joins values, the source holds several entries; their conditions need not be identical. Equal entries are not always repeated.
# Key:
# [1] = review as at 18 Nov. 2004; cited from earlier work
# [2] = FDA MEDWATCH, in words; cited from earlier work
# [3] = Kinetic study of slow-release propranolol granules given by mouth to anaesthetised dogs; portal venous and systemic blood concentration; format: in vivo; details: for Propranolol Concentration, Systemic: systemic blood
# Text: Experiments were undertaken in four dogs under general anaesthesia induced with halothane and then maintained with ketamine and xylazine. Cardiovascular status was monitored by measurement of heart rate and blood pressure and by measurement of arterial blood gases. Ventilation was assisted to maintain blood gases within physiological limits. A catheter was placed in the femoral artery to permit sampling of arterial blood. After laparotomy, a catheter was placed in a mesenteric vein and advanced to the portal vein to permit sampling of portal venous blood samples.
# Propranolol was administered by mouth on the evening before, and then again one hour before the study as a dose of 40 mg in granules taken from a 160 mg slow release formulation of propranolol (Cardinol; Pacific Pharmaceuticals New Zealand). […] The animals were sacrificed at the end of he experiment.
# The concentration in systemic blood was generally below the level of detection (<5 ug/ml).
# [4] = in vivo; cited from earlier work
compound,measurement,setting,value
CC(C)c1c(C(=O)Nc2ccccc2)c(-c2ccccc2)c(-c2ccc(F)cc2)n1CC[C@@H](O)C[C@@H](O)CC(=O)O [Atorvastatin],transient global amnesia cases within Australia,[1],7 cases
"COCc1c(C(C)C)nc(C(C)C)c(/C=C/[C@@H](O)C[C@@H](O)CC(=O)O)c1-c1ccc(F)cc1 [Cerivastatin, cerivastatin]",implication in statin-associated rhabdomyolysis reports,[2],most commonly implicated statin
CC[C@H](C)C(=O)O[C@H]1C[C@H](O)C=C2C=C[C@H](C)[C@H](CC[C@@H](O)C[C@@H](O)CC(=O)O)[C@H]21 [Pravastatin],transient global amnesia cases within Australia,[1],3 cases
"CC(C)NCC(O)COc1cccc2ccccc12 (centres unmarked) [Propranolol, propranolol]",concentration at 60 min,"[3]; dog, portal venous whole blood, oral, 40 mg, portal vein, 60 min, individual dogs 1-4",5800 ng/mL
same,concentration in systemic blood,"[3]; generally below the level of detection, summary of the table",< 5000 ng/mL
same,"Propranolol Concentration, Portal Vein","[3]; portal vein, 30 min, individual dogs 1-4",11.5 µg/mL and 11.8 µg/mL and 13 µg/mL and 2 µg/mL
same,"Propranolol Concentration, Portal Vein","[3]; portal vein, 60 min, individual dogs 1-4",10.9 µg/mL and 10 µg/mL and 6 µg/mL
same,"Propranolol Concentration, Portal Vein","[3]; portal vein, 90 min, individual dogs 1-4",22 µg/mL and 14.4 µg/mL and 10 µg/mL and 5 µg/mL
same,"Propranolol Concentration, Portal Vein","[3]; portal vein, 120 min, individual dogs 1-4",<5 µg/mL and 13 µg/mL and 4 µg/mL
same,"Propranolol Concentration, Portal Vein","[3]; portal vein, Baseline, 40 mg slow-release granules by mouth evening before and one hour before study, individual dogs 1-4",<5 µg/mL and 28.8 µg/mL and 21 µg/mL and 36 µg/mL
same,portal versus systemic concentration (liver selectivity),"[3]; small series in dogs, conclusion in words",concentration gradients between portal and systemic vessels
same,"Propranolol Concentration, Systemic","[3]; 30 min, individual dogs 1-4",<5 ug/ml (2×) and 2 ug/ml and <2 ug/ml
same,"Propranolol Concentration, Systemic","[3]; 60 min, individual dogs 1-4",6.2 µg/mL and <5 µg/mL and 2 µg/mL and <2 µg/mL
same,"Propranolol Concentration, Systemic","[3]; 90 min, individual dogs 1-4",5.8 µg/mL and <5 µg/mL and 2 µg/mL and <2 µg/mL
same,"Propranolol Concentration, Systemic","[3]; 120 min, individual dogs 1-4",<5 µg/mL and 2 µg/mL and <2 µg/mL
same,"Propranolol Concentration, Systemic","[3]; Baseline, individual dogs 1-4",<5 ug/ml (2×) and 3 ug/ml and <2 ug/ml
CCC(C)(C)C(=O)O[C@H]1C[C@@H](C)C=C2C=C[C@H](C)[C@H](CC[C@@H]3C[C@@H](O)CC(=O)O3)[C@H]21 [simvastatin],half-life,[4],42 to 240 min
